These results are taken from the Kinase Knowledgebase extract (Sharma et al. 2016).

SMILES strings stand for the structures. pIC50: −log10 of the molar value.

Chain of PIK3CA (human) (P42336 whole entry, looked up): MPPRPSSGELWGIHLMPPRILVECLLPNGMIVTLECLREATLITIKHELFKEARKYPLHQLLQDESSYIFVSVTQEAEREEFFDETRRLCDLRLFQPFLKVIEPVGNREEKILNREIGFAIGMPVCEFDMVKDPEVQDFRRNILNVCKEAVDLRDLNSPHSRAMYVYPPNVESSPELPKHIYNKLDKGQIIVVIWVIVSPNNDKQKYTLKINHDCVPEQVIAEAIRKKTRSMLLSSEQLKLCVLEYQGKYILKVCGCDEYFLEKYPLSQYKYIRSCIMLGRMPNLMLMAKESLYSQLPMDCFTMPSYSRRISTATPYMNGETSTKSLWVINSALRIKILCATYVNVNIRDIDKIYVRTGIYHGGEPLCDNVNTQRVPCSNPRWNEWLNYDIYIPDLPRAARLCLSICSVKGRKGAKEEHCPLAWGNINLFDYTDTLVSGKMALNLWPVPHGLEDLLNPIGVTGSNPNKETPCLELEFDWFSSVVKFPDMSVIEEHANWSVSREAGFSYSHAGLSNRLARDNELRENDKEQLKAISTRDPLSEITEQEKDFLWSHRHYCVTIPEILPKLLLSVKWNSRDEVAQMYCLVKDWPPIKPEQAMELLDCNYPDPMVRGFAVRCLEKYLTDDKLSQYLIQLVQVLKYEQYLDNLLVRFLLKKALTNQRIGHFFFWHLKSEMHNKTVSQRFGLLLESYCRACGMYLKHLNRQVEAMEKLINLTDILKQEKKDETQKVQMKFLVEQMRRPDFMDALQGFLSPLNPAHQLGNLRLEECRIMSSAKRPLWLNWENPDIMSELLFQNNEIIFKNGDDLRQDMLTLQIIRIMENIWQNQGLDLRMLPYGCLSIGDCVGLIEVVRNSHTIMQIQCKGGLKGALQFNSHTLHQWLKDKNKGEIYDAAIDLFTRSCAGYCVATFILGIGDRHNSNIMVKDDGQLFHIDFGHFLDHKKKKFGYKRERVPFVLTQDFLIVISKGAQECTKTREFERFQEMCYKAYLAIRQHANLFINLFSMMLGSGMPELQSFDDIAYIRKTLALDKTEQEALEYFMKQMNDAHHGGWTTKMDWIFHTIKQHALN

The assay addresses PIK3CA (human) (UniProt P42336). The assay is described as follows: Assessment of PIK3CA Kinase Activity.
As for `CN(Cc1cc2nc(-c3ccc(N)c(C#N)c3)nc(N3CCOCC3)c2s1)c1ncc(C(=O)NO)cn1`, the negative logarithm of the IC50 (pIC50) is 6.00 to 7.00. Regarding `COc1ccc(-c2nc(N3CCOCC3)c3sc(CN(C)c4ncc(C(=O)NO)cn4)cc3n2)cc1`, the pIC50 was below 5.00. As to `CCOc1ccc(-c2nc(N3CCOCC3)c3sc(CN(C)c4ncc(C(=O)NO)cn4)cc3n2)cn1`, the negative logarithm of the IC50 (pIC50) was above 7.00. Under `COc1ncc(-c2nc(N3CCOCC3)c3sc(C(C)(C)Nc4ncc(C(=O)NO)cn4)cc3n2)cn1` stands above 7.00; under `C[C@@H](O)c1cccc(-c2nc(N3CCOCC3)c3sc(CN(C)c4ncc(C(=O)NO)cn4)cc3n2)c1`, 6.00 to 7.00; under `O=C(NO)c1ccc2c(ccn2Cc2cc3nc(-c4cccc5[nH]ncc45)nc(N4CCOCC4)c3s2)c1`, below 5.00. Under `CNc1ccc(-c2nc(N3CCOCC3)c3sc(NS(=O)(=O)c4ccc(C=CC(=O)NO)cc4)cc3n2)cn1` stands above 7.00; under `CN(Cc1cc2nc(-c3ccc(OCc4ccccc4)nc3)nc(N3CCOCC3)c2s1)c1ncc(C(=O)NO)cn1`, below 5.00. Under `CNc1ccc(-c2nc(N3CCOCC3)c3sc(CN(CCO)c4ncc(C(=O)NO)cn4)cc3n2)cn1` stands above 7.00. In turn, `CS(=O)(=O)N1CCN(Cc2cc3nc(-c4cccc5[nH]ncc45)nc(NCCCCCC(=O)NO)c3s2)CC1` gave a pIC50 below 5.00. As for `CN(Cc1cc2nc(-c3cnc(OCc4ccccc4)nc3)nc(N3CCOCC3)c2s1)c1ncc(C(=O)NO)cn1`, the negative-log IC50 (pIC50) was 6.00 to 7.00. Under `Nc1ncc(-c2nc(N3CCOCC3)c3sc(NS(=O)(=O)c4ccc(/C=C/C(=O)NO)cc4)cc3n2)cn1` stands above 7.00; under `O=C(C=Cc1cccc(S(=O)(=O)Nc2cc3nc(-c4cccc5[nH]ncc45)nc(N4CCOCC4)c3s2)c1)NO`, above 7.00; under `CN(Cc1cc2nc(-c3ccccc3)nc(N3CCOCC3)c2s1)c1ncc(C(=O)NO)cn1`, below 5.00. The molecule `COc1ncc(-c2nc(N3CCOCC3)c3sc(NS(=O)(=O)c4ccc(C=CC(=O)NO)cc4)cc3n2)cn1` had a negative-log IC50 (pIC50) above 7.00. Under `CC(C)OC(=O)Nc1ccc(-c2nc(N3CCOCC3)c3sc(CN(C)c4ncc(C(=O)NO)cn4)cc3n2)cc1` stands below 5.00. Consider `CNc1ccc(-c2nc(N3CCOCC3)c3sc(NCCCCC(=O)NO)cc3n2)cn1`, for which the negative logarithm of the IC50 (pIC50) was above 7.00.

For the molecule `Nc1ccc(-c2nc(N3CCOCC3)c3sc(CN(CCO)c4ncc(C(=O)NO)cn4)cc3n2)cc1F`, the pIC50 was above 7.00. For `CS(=O)(=O)N1CCN(Cc2cc3nc(-c4cccc5[nH]ncc45)nc(N4CCN(CCCCCCC(=O)NO)CC4)c3s2)CC1`, the pIC50 is below 5.00. Under `CNc1ccc(-c2nc(N3CCOCC3)c3sc(NS(=O)(=O)c4cccc(C=CC(=O)NO)c4)cc3n2)cn1` stands above 7.00; under `CS(=O)(=O)N1CCN(Cc2cc3nc(-c4cccc5nn(CCCCCC(=O)NO)cc45)nc(N4CCOCC4)c3s2)CC1`, below 5.00; under `Nc1ncc(-c2nc(N3CCOCC3)c3sc(NCCCCCCC(=O)NO)cc3n2)cn1`, above 7.00. Molecule `CCCc1nc2cc(C=CC(=O)NO)ccc2n1CCNCc1cc2nc(-c3ccc(NC)nc3)nc(N3CCOCC3)c2s1` had a negative logarithm of the IC50 (pIC50) above 7.00. Take `COc1ccc(-c2nc(N3CCOCC3)c3sc(C(C)(C)Nc4ncc(C(=O)NO)cn4)cc3n2)cn1`: the negative-log IC50 (pIC50) was above 7.00. Under `CN(Cc1cc2nc(-c3cccc(CCO)c3)nc(N3CCOCC3)c2s1)c1ncc(C(=O)NO)cn1` stands 6.00 to 7.00. Under `CN(Cc1cc2nc(-c3ccc4[nH]c(=O)[nH]c4c3)nc(N3CCOCC3)c2s1)c1ncc(C(=O)NO)cn1` stands below 5.00; under `CNc1ccc(-c2nc(N3CCOCC3)c3sc(CNCc4nc5cc(C=CC(=O)NO)ccc5n4C)cc3n2)cn1`, above 7.00. Under `CN(Cc1cc2nc(-c3ccc4[nH]c(C(F)(F)F)nc4c3)nc(N3CCOCC3)c2s1)c1ncc(C(=O)NO)cn1` stands above 7.00; under `CN(Cc1cc2nc(-c3ccc(N)c(O)c3)nc(N3CCOCC3)c2s1)c1ncc(C(=O)NO)cn1`, above 7.00.

Molecule `CNc1ccc(-c2nc(N3CCOCC3)c3sc(C(C)N(C)c4ncc(C(=O)NO)cn4)cc3n2)cn1` (centres undefined) showed a pIC50 above 7.00. With `COc1ccc(-c2nc(N3CCOCC3)c3sc(CN(CCO)c4ncc(C(=O)NO)cn4)cc3n2)cn1`, the pIC50 is above 7.00.

Molecule `CS(=O)(=O)N1CCN(Cc2cc3nc(-c4cccc5c4cnn5CCCCCC(=O)NO)nc(N4CCOCC4)c3s2)CC1` showed a negative-log IC50 (pIC50) below 5.00.

In turn, `CCN(CC)c1ccc(-c2nc(N3CCOCC3)c3sc(CN(C)c4ncc(C(=O)NO)cn4)cc3n2)cc1` showed a negative logarithm of the IC50 (pIC50) below 5.00. Under `CS(=O)(=O)N1CCN(Cc2cc3nc(-c4cccc5[nH]ncc45)nc(NCCCCC(=O)NO)c3s2)CC1` stands below 5.00; under `CN(Cc1cc2nc(-c3cc(O)ccc3F)nc(N3CCOCC3)c2s1)c1ncc(C(=O)NO)cn1`, above 7.00. Under `CN(Cc1cc2nc(-c3ccc(N)c(F)c3)nc(N3CCOCC3)c2s1)c1ncc(C(=O)NO)cn1` stands above 7.00.

For the molecule `CN(Cc1cc2nc(-c3ccc(N)c(CO)c3)nc(N3CCOCC3)c2s1)c1ncc(C(=O)NO)cn1`, the pIC50 is above 7.00. Under `COc1ccc(-c2nc(N3CCOCC3)c3sc(NS(=O)(=O)c4cccc(/C=C/C(=O)NO)c4)cc3n2)cn1` stands above 7.00.

The molecule `CS(=O)(=O)N1CCN(Cc2cc3nc(-c4cccc5nn(CCCCCCC(=O)NO)cc45)nc(N4CCOCC4)c3s2)CC1` gave a pIC50 below 5.00.

The molecule `CN(Cc1cc2nc(-c3ccc(N4CCCC4)cc3)nc(N3CCOCC3)c2s1)c1ncc(C(=O)NO)cn1` gave a negative logarithm of the IC50 (pIC50) below 5.00. Under `CC(C)c1ccc(-c2nc(N3CCOCC3)c3sc(CN(C)c4ncc(C(=O)NO)cn4)cc3n2)cc1` stands below 5.00. Under `Nc1ccc(-c2nc(N3CCOCC3)c3sc(CNCc4ccc(C(=O)NO)cc4)cc3n2)cc1` stands below 5.00; under `CN(Cc1cc2nc(-c3ccc(N)cc3F)nc(N3CCOCC3)c2s1)c1ncc(C(=O)NO)cn1`, 6.00 to 7.00. Under `CN(Cc1cc2nc(-c3ccc(F)cc3)nc(N3CCOCC3)c2s1)c1ncc(C(=O)NO)cn1` stands below 5.00. In the case of `CN(Cc1cc2nc(-c3cccc4[nH]ncc34)nc(N3CCNCC3)c2s1)c1ncc(C(=O)NO)cn1`, the pIC50 is below 5.00. Under `CN(Cc1cc2nc(-c3ccc(S(C)(=O)=O)cc3)nc(N3CCOCC3)c2s1)c1ncc(C(=O)NO)cn1` stands below 5.00; under `CN(c1ncc(C(=O)NO)cn1)c1cc2nc(-c3ccc(N)cc3)nc(N3CCOCC3)c2s1`, above 7.00. In turn, `CN(Cc1cc2nc(-c3cccc(OCCO)c3)nc(N3CCOCC3)c2s1)c1ncc(C(=O)NO)cn1` showed a negative logarithm of the IC50 (pIC50) above 7.00. Under `CC(=O)c1cc(-c2nc(N3CCOCC3)c3sc(CN(C)c4ncc(C(=O)NO)cn4)cc3n2)ccc1N` stands 6.00 to 7.00. Under `COc1ccc(-c2nc(N3CCOCC3)c3sc(C(C)N(C)c4ncc(C(=O)NO)cn4)cc3n2)cn1` (centres undefined) stands above 7.00.

Molecule `CC(=O)c1cccc(-c2nc(N3CCOCC3)c3sc(CN(C)c4ncc(C(=O)NO)cn4)cc3n2)c1` had a negative logarithm of the IC50 (pIC50) of 6.00 to 7.00. Take `CS(=O)(=O)N1CCN(Cc2cc3nc(-c4ccc(OCCCCC(=O)NO)cc4)nc(N4CCOCC4)c3s2)CC1`: the pIC50 was 6.00 to 7.00.

`CCCc1nc2cc(C=CC(=O)NO)ccc2n1CCN(C)Cc1cc2nc(-c3ccc(N)cc3)nc(N3CCOCC3)c2s1` had a pIC50 of 6.00 to 7.00. Under `COc1ccc(-c2nc(N3CCOCC3)c3sc(NCCCCCC(=O)NO)cc3n2)cn1` stands above 7.00.

In general, pIC50 refers to the IC50 on a negative log10 scale, so that one unit is a factor of ten. High values mean a low IC50, low ones a high IC50.
